Experiment [1] can be described thus: yeast lifespan-shortening chemical project counter-assay, dose-response inhibition of growth under permissive conditions (AID 850).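 Further: growth read as optical density after one day of incubation.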 The settings on record: Saccharomyces cerevisiae growth inhibition, permissive control, measured here: maximum growth inhibition, stronger effect = higher value.
For experiment [2], the system named is Saccharomyces cerevisiae growth inhibition, permissive control. The description is as above.

SMILES strings stand for the structures. Activity calls are given as the source filed them. How the calls were made is not given here. A value given as a limit tells only on which side of the number the result lay.

The inhibition is the change of the read-out against control, counted positive when it falls. One may read the IC50 as the midpoint of a concentration-inhibition curve. As for `NNC(=O)c1ccc(COc2ccc3c(c2)CCC3)o1`, in experiment [1] (at 50 µM), the inhibition worked out at 95.3%. For the same molecule, the IC50 in experiment [2] was 15.5 µM.
For `Oc1c(Cl)cc(Cl)c(Cl)c1Cc1c(O)c(Cl)cc(Cl)c1Cl`, the inhibition in experiment [1] (at 6.25 µM) turned out to be 23.3%. In addition, the IC50 in experiment [2] is > 100 µM (inactive).
With `CC1CCCC2(C1)NC(=S)N(c1ccccc1)N2` (stereo not drawn), the inhibition in experiment [1] (at 50 µM) stood at 78.8%. Besides, in experiment [2], the IC50 is 20.5 µM.
For `CC1Cc2ccccc2N1C(=O)CSC1=NCCS1` (stereo not drawn), the inhibition in experiment [1] (at 0.781 µM) worked out at 16.7%. Further, the IC50 in experiment [2] is > 100 µM (inactive).
For `N#CSCC(=O)c1cccc2ccccc12`, the inhibition in experiment [1] (at 12.5 µM) stood at 26.9%. Also, the IC50 in experiment [2] was > 100 µM (inactive).
On to `CCOC(=O)c1sc(=S)n(-c2cc(F)ccc2F)c1N`, for which, in experiment [1] (at 25 µM), the inhibition came out at 29.2%. Also, the IC50 in experiment [2] is > 100 µM (inactive).
In the case of `CC1=C(C)CC2C(=O)N(c3cccc4ccccc34)C(=O)C2C1` (stereo not drawn), the inhibition in experiment [1] (at 50 µM) is 8.57%. The IC50 in experiment [2] was > 100 µM (inactive).
With `CC1=NOC(=O)/C1=C/c1ccc(-c2ccc(Cl)cc2)o1`, the inhibition in experiment [1] (at 25 µM) came out at 90.5%. Moreover, the IC50 in experiment [2] was 11 µM.
Take `O=C(/C=C/c1ccccc1Cl)c1ccccc(=O)c1O`: the inhibition in experiment [1] (at 50 µM) was 101%. Moreover, the IC50 in experiment [2] is 11.5 µM.
`O=[N+]([O-])c1ccc(O)c2ncccc12`: the inhibition in experiment [1] (at 12.5 µM) is 99.4%. Also, the IC50 in experiment [2] is 0.483 µM.
Consider `Cn1c(SCC(=O)N/N=C/c2ccc([N+](=O)[O-])s2)nnc1-c1ccc(Cl)cc1`, for which the inhibition in experiment [1] (at 50 µM) amounted to 99.2%. For the same molecule, the IC50 in experiment [2] is 29.7 µM.
`CCCn1c(C(C)NC(C)=O)nc2ccccc21` (stereo not drawn): the inhibition in experiment [1] (at 12.5 µM) was found to be 9.66%. Further, the IC50 in experiment [2] is > 100 µM (inactive).
With `O=C1c2ccc3c4c(ccc(c24)C(=O)N1NC(=O)C(F)(F)F)CC3`, in experiment [1] (at 0.195 µM), the inhibition is 15.2%. Further, the IC50 in experiment [2] was > 100 µM (inactive).
As for `CCCCCCCOC(=O)C[N+](C)(C)CCOC1CC2CCC1(C)C2(C)C` (stereo not drawn), the inhibition in experiment [1] (at 50 µM) was found to be 99.4%. In addition, the IC50 in experiment [2] was 29.2 µM.
For the molecule `CSC1=NSC2=NC(=O)/C(=C\c3coc4ccccc4c3=O)C(=N)N12`, in experiment [1] (at 50 µM), the inhibition came to 19.2%. In addition, the IC50 in experiment [2] is > 100 µM (inactive).
`CCCCCCCCCCCCCCCC(O)C(N)CO` (stereo not drawn): in experiment [1] (at 50 µM), the inhibition is 99.2%. Further, the IC50 in experiment [2] is 24.8 µM.
For `O=c1oc2ccccc2cc1-c1cn2cccnc2n1`, the inhibition in experiment [1] (at 12.5 µM) worked out at 13.2%. The IC50 in experiment [2] is > 100 µM (inactive).
For `O=C(Nc1nc(-c2ccccn2)cs1)c1ccc(Cl)s1` the same measures were 91.4% and 2.09 µM.
Consider `COc1ccc(C(=O)/C=C/N2CCCCC2)cc1OC`, for which, in experiment [1] (at 50 µM), the inhibition turned out to be 91.2%. In experiment [2], the IC50 is 29.4 µM.
As to `Cc1cccc(Nc2nc(-c3ccccn3)cs2)n1`, in experiment [1] (at 25 µM), the inhibition is 63.1%. The IC50 in experiment [2] is 13.3 µM.
Consider `COc1ccc(CCNC(=O)c2cnn3c(C(F)F)cc(C)nc23)cc1OC`, for which, in experiment [1] (at 3.125 µM), the inhibition was -1.3%. Besides, the IC50 in experiment [2] is > 100 µM (inactive).
Take `Cc1ccc(C)c(/C=C/C(=O)c2ccccc(=O)c2O)c1`: the inhibition in experiment [1] (at 25 µM) came to 100%. Further, the IC50 in experiment [2] was 6.38 µM.
With `Cc1cccc(/C=C/C(=O)c2cc(Br)ccc(=O)c2O)c1`, the inhibition in experiment [1] (at 50 µM) is 83.2%. For the same molecule, in experiment [2], the IC50 is 12.2 µM.
As for `CC(=O)Oc1ccc(N2C(=O)C3C(C2=O)C2(C)C=CC3(C)O2)cc1` (stereo not drawn), the inhibition in experiment [1] (at 0.195 µM) turned out to be 3.93%. Further, the IC50 in experiment [2] was > 100 µM (inactive).
For `O=c1oc2ccccc2c(N2CCCC2)c1CN1CCCC1`, in experiment [1] (at 12.5 µM), the inhibition came to 11.7%. Moreover, in experiment [2], the IC50 was > 100 µM (inactive).
For the molecule `Cc1cc(C(=O)N/N=C/c2cccc([N+](=O)[O-])c2O)n[nH]1`, the inhibition in experiment [1] (at 6.25 µM) came out at 19.4%. In addition, the IC50 in experiment [2] is > 100 µM (inactive).
Consider `CCN(CC)S(=O)(=O)c1ccc(NC(=O)CSc2cccc[n+]2[O-])cc1`, for which the inhibition in experiment [1] (at 50 µM) worked out at 90.1%. In experiment [2], the IC50 is 31.6 µM.
As for `c1ccc(-c2ccc(C(c3ccccc3)n3ccnc3)cc2)cc1` (stereo not drawn), the inhibition in experiment [1] (at 3.125 µM) is 94.4%. In experiment [2], the IC50 is 0.793 µM.
For the molecule `CC(=O)O/N=C/c1c(N2CCOCC2)n(C)c2ccccc12`, the inhibition in experiment [1] (at 50 µM) came to 96.5%. The IC50 in experiment [2] is 17.5 µM.

For the origin of these results see PubChem BioAssay AID850 (SRMLSC, 2007).
